# Columns and labels:
# CASOB (Sicklepod) = test: Postemergence herbicidal evaluation; type: in vivo, Cassia obtusifolia
# Summary of the method: (§1)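 Visual 0-9 injury score (stand, vigor, malformation, size, chlorosis, appearance vs untreated) taken four to five weeks post-spray, averaged across repeat tests. Test plants about two weeks old; foliar spray of acetone/water (1:1) with 0.5% surfactant delivering ~0.0156-0.500 kg active/ha.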
# [1] = test system: CHEAL (Lambsquarters, Common); test: Postemergence herbicidal evaluation; type: in vivo, Chenopodium album
# Summary of the method: as §1
# ECHCG (Barnyardgrass) = test: Postemergence herbicidal evaluation; type: in vivo, Echinochloa crus-galli
# Summary of the method: as §1
# ORYSAT (Rice, Tebonnet) [2] = test: Postemergence herbicidal evaluation; type: in vivo, Oryza sativa, (L.) Tebonnet
# Summary of the method: as §1
# GALAP (Galium) = test: Preemergence herbicidal evaluation; type: in vivo, Galium aparine; conditions: rated 4-5 weeks after treatment
# Summary of the method: (§2)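 Test compound, dissolved in aqueous acetone, was sprayed over planted soil cups at an equivalent of about 0.0156 to 0.500 kg/ha; seeds had been mixed with potting soil. Greenhouse growth followed, with visual 0-9 scoring of injury at four to five weeks.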
# SETVI (Foxtail, Green) = test: Preemergence herbicidal evaluation; type: in vivo, Setaria viridis; conditions: rated 4-5 weeks after treatment
# Summary of the method: as §2
# [3] = test system: GLXMAW (Soybean, Williams); test: Preemergence herbicidal evaluation; type: in vivo, Glycine max, (L.) Merr. cv Williams; conditions: rated 4-5 weeks after treatment
# Summary of the method: as §2
# ORYSAT (Rice, Tebonnet) [4] = test: Preemergence herbicidal evaluation; type: in vivo, Oryza sativa, (L.) Tebonnet; conditions: rated 4-5 weeks after treatment
# Summary of the method: as §2
# [5] = test system: TRZAWR (Wheat, Winter, cv Riband); test: Preemergence herbicidal evaluation; type: in vivo, Triticum aestivum; conditions: rated 4-5 weeks after treatment
# Summary of the method: as §2
# ZEAMX (Corn, Field) = test: Preemergence herbicidal evaluation; type: in vivo, Zea mays; conditions: rated 4-5 weeks after treatment
# Summary of the method: as §2
# CYPIR (Rice Flatsedge) = test: Preemergence weed control under flooded paddy conditions; type: in vivo, Cyperus iria; conditions: rated 3-4 weeks after treatment
# Summary of the method: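 Herbicidal effect is scored visually on a 0-9 scale against an untreated control, three to four weeks after compounds are pipetted into the flood water (1.5 to 3 cm deep) over seeds planted in silt loam at 0.5 cm depth. Rates: about 0.0313 to 0.500 kg/ha.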
# MOOVA (Monochoria) = test: as above; type: in vivo, Monochoria vaginalis; conditions: rated 3-4 weeks after treatment
# Summary of the method: (§3)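 Ratings on a 0-9 visual scale cover stand, vigor, malformation, size, chlorosis and overall appearance relative to a control, taken three to four weeks post-treatment. Application was into flood water over freshly sown silt loam at roughly 0.0313 to 0.500 kg/ha.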
# [6] = test system: SAGPY (Arrowhead (Pygmaea)); test: as above; type: in vivo, Sagittaria pygmaea; conditions: rated 3-4 weeks after treatment
# Summary of the method: as §3
# CYPSE (Flatsedge) = test: Postemergence weed control under flooded paddy conditions; type: in vivo, Cyperus serotinus; conditions: postemergence weeds
# Summary of the method: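 Flood-water application, about 0.0313–0.500 kg/ha a.i. in aqueous/acetone 50/50 v/v; water depth 1.5–3 cm throughout. Weeds 3–5 cm, rice 1.5–2.5 leaf. Greenhouse; 0–9 visual rating vs control at 3–4 wk.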
smiles,measurement,setting,value
"C#CCOC(=O)CC1SC(=Nc2cc(-n3c(=O)cc(C(F)(F)F)n(C)c3=O)c(F)cc2Cl)N(CC(=O)OCC)C1=O (stereo not shown) [Compound 59, 2-{{2-Chloro-5-[3,6-dihydro-3-methyl-2,6-dioxo-4-(trifluoromethyl)-1(2H)-pyrimidinyl]-4-fluorophenyl}imino}-4-oxo-3,5-thiazolidinediacetic acid, 3-ethyl (2-propynyl) ester]",Postemergence herbicidal rating CASOB,CASOB (Sicklepod); Rate 0.0158 kg/ha,3.0
same,Postemergence herbicidal rating CASOB,CASOB (Sicklepod); Rate 0.0315 kg/ha,9.0
same,Postemergence herbicidal rating CASOB,CASOB (Sicklepod); Rate 0.0630 kg/ha,9.0
same,Postemergence herbicidal rating CHEAL,[1]; Rate 0.0158 kg/ha,9.0
same,Postemergence herbicidal rating CHEAL,[1]; Rate 0.0315 kg/ha,9.0
same,Postemergence herbicidal rating CHEAL,[1]; Rate 0.0630 kg/ha,9.0
same,Postemergence herbicidal rating ECHCG,ECHCG (Barnyardgrass); Rate 0.0158 kg/ha,9.0
same,Postemergence herbicidal rating ECHCG,ECHCG (Barnyardgrass); Rate 0.0315 kg/ha,9.0
same,Postemergence herbicidal rating ECHCG,ECHCG (Barnyardgrass); Rate 0.0630 kg/ha,9.0
same,Postemergence herbicidal rating ORYSAT,"ORYSAT (Rice, Tebonnet) [2]; Rate 0.0158 kg/ha",4.5
same,Postemergence herbicidal rating ORYSAT,"ORYSAT (Rice, Tebonnet) [2]; Rate 0.0315 kg/ha",6.0
same,Postemergence herbicidal rating ORYSAT,"ORYSAT (Rice, Tebonnet) [2]; Rate 0.0630 kg/ha",5.5
same,Preemergence herbicidal rating GALAP,GALAP (Galium); rate 0.0156 kg/ha,0.0
same,Preemergence herbicidal rating GALAP,GALAP (Galium); rate 0.0313 kg/ha,0.0
same,Preemergence herbicidal rating GALAP,GALAP (Galium); rate 0.0625 kg/ha,6.0
same,Preemergence herbicidal rating GALAP,GALAP (Galium); rate 0.1250 kg/ha,7.0
same,Preemergence herbicidal rating GALAP,GALAP (Galium); rate 0.2500 kg/ha,9.0
same,Preemergence herbicidal rating SETVI,"SETVI (Foxtail, Green); rate 0.0156 kg/ha",0.0
same,Preemergence herbicidal rating SETVI,"SETVI (Foxtail, Green); rate 0.0313 kg/ha",0.0
same,Preemergence herbicidal rating SETVI,"SETVI (Foxtail, Green); rate 0.0625 kg/ha",1.5
same,Preemergence herbicidal rating SETVI,"SETVI (Foxtail, Green); rate 0.1250 kg/ha",8.0
same,Preemergence herbicidal rating SETVI,"SETVI (Foxtail, Green); rate 0.2500 kg/ha",9.0
same,Preemergence herbicidal rating SETVI,"SETVI (Foxtail, Green); rate 0.5000 kg/ha",9.0
same,Preemergence herbicidal rating GLXMAW,[3]; rate 0.0156 kg/ha,1.0
same,Preemergence herbicidal rating GLXMAW,[3]; rate 0.0313 kg/ha,0.5
same,Preemergence herbicidal rating GLXMAW,[3]; rate 0.0625 kg/ha,1.0
same,Preemergence herbicidal rating GLXMAW,[3]; rate 0.1250 kg/ha,4.0
same,Preemergence herbicidal rating GLXMAW,[3]; rate 0.2500 kg/ha,7.0
same,Preemergence herbicidal rating GLXMAW,[3]; rate 0.5000 kg/ha,9.0
same,Preemergence herbicidal rating ORYSAT,"ORYSAT (Rice, Tebonnet) [4]; rate 0.0156 kg/ha",0.0
same,Preemergence herbicidal rating ORYSAT,"ORYSAT (Rice, Tebonnet) [4]; rate 0.0313 kg/ha",0.0
same,Preemergence herbicidal rating ORYSAT,"ORYSAT (Rice, Tebonnet) [4]; rate 0.0625 kg/ha",0.5
same,Preemergence herbicidal rating ORYSAT,"ORYSAT (Rice, Tebonnet) [4]; rate 0.1250 kg/ha",2.5
same,Preemergence herbicidal rating ORYSAT,"ORYSAT (Rice, Tebonnet) [4]; rate 0.2500 kg/ha",3.5
same,Preemergence herbicidal rating ORYSAT,"ORYSAT (Rice, Tebonnet) [4]; rate 0.5000 kg/ha",7.0
same,Preemergence herbicidal rating TRZAWR,[5]; rate 0.0156 kg/ha,0.0
same,Preemergence herbicidal rating TRZAWR,[5]; rate 0.0313 kg/ha,0.0
same,Preemergence herbicidal rating TRZAWR,[5]; rate 0.0625 kg/ha,0.0
same,Preemergence herbicidal rating TRZAWR,[5]; rate 0.1250 kg/ha,2.0
same,Preemergence herbicidal rating TRZAWR,[5]; rate 0.2500 kg/ha,2.0
same,Preemergence herbicidal rating ZEAMX,"ZEAMX (Corn, Field); rate 0.0156 kg/ha",1.0
same,Preemergence herbicidal rating ZEAMX,"ZEAMX (Corn, Field); rate 0.0313 kg/ha",0.5
same,Preemergence herbicidal rating ZEAMX,"ZEAMX (Corn, Field); rate 0.0625 kg/ha",1.5
same,Preemergence herbicidal rating ZEAMX,"ZEAMX (Corn, Field); rate 0.1250 kg/ha",3.0
same,Preemergence herbicidal rating ZEAMX,"ZEAMX (Corn, Field); rate 0.2500 kg/ha",3.5
same,Preemergence herbicidal rating ZEAMX,"ZEAMX (Corn, Field); rate 0.5000 kg/ha",6.0
same,CYPIR herbicidal effect rating,CYPIR (Rice Flatsedge); 0.0625 kg/ha,0.0
same,CYPIR herbicidal effect rating,CYPIR (Rice Flatsedge); 0.1250 kg/ha,0.0
same,CYPIR herbicidal effect rating,CYPIR (Rice Flatsedge); 0.2500 kg/ha,9.0
same,MOOVA herbicidal effect rating,MOOVA (Monochoria); 0.0625 kg/ha,0.0
same,MOOVA herbicidal effect rating,MOOVA (Monochoria); 0.1250 kg/ha,0.0
same,MOOVA herbicidal effect rating,MOOVA (Monochoria); 0.2500 kg/ha,9.0
same,SAGPY herbicidal effect rating,[6]; 0.0625 kg/ha,0.0
same,SAGPY herbicidal effect rating,[6]; 0.1250 kg/ha,0.0
same,SAGPY herbicidal effect rating,[6]; 0.2500 kg/ha,3.0
same,Herbicidal rating CYPSE,"CYPSE (Flatsedge); Rate 0.0625 kg/ha, rated 3 to 4 weeks after treatment",0.0
same,Herbicidal rating CYPSE,"CYPSE (Flatsedge); rate 0.1250 kg/ha, 3-4 weeks after treatment",0.0
same,Herbicidal rating CYPSE,"CYPSE (Flatsedge); rate 0.2500 kg/ha, 3-4 weeks after treatment",7.0

# Reference: patent US20020137929A1, “1 - (3-heterocyclylphenyl) isothiourea, -isourea, -guanidine and -amidine herbicidal agents” (Intellectual Property Department, BASF Aktiengesellschaft, priority 1998, published 2002)
